Results on three molecules are retold here after patent US20020128264A1, “Methods for treatment of conditions affected by activity of multidrug transporters” (priority 2000, published 2002).

The conditions of data set [1]: Taylor et al., 2000, cited from earlier work.
For data set [2] the following is noted: Taylor et al., 2000, cited from earlier work. This is another data set of the same source.
Data set [3] is described as follows: Intraparenchymal (ipc) efflux from brain. Type of data set: in vivo, mice. Particulars: ipc administration. The procedure:
(§1) Male Swiss-Webster CFW mice were supplied by Charles River Laboratories (Hollister, Calif.) and all experiments were conducted according to the NIH Guide on Care and Use of Laboratory Animals. Mice were 2-3 months old at the time of use.
These experiments were conducted according the method of Banks et al. (1994) with minor modifications. Mice were anesthetized and then immobilized in a stereotaxic apparatus with a mouse adaptor coupled to a microinjection unit (Kopf, Tujunga, Calif.). A small hole was made in the skull with a Dremel drill (model 770; 2.4 mm drill bit, model 107) at −1 mm AP and 1 mm LL relative to Bregma. Using a guarded 0.5 μL Hamilton syringe (25 g), 0.1 μL PBS containing ^14C-AIT-082 ([…]) or ^3H-sucrose (˜5×10^4 dpm/μL) was injected ipc at […] with respect to the skull. Back flux of injection fluid was collected and at various times after injection brains were removed. The amount of radioactivity in brain, back flux and injection mixture was measured. The amount of radioactivity in the brain was corrected for the back flux and the log of this corrected dpm was plotted against time. The t½ was calculated as described above.
(§2) All data are presented as mean ±S.E. For comparisons of means from 2 groups an unpaired Student's t-test was used. For comparisons of means from 3 groups, ANOVA was performed coupled with Scheffe's post-hoc analysis.

The target of data set [4] is T1, P-gp (Mus musculus, UniProt P21447).
T1 construct: from tissue; host or cells: brain of living mice (in vivo efflux after icv or ipc injection)
T1 sequence (P21447 whole entry): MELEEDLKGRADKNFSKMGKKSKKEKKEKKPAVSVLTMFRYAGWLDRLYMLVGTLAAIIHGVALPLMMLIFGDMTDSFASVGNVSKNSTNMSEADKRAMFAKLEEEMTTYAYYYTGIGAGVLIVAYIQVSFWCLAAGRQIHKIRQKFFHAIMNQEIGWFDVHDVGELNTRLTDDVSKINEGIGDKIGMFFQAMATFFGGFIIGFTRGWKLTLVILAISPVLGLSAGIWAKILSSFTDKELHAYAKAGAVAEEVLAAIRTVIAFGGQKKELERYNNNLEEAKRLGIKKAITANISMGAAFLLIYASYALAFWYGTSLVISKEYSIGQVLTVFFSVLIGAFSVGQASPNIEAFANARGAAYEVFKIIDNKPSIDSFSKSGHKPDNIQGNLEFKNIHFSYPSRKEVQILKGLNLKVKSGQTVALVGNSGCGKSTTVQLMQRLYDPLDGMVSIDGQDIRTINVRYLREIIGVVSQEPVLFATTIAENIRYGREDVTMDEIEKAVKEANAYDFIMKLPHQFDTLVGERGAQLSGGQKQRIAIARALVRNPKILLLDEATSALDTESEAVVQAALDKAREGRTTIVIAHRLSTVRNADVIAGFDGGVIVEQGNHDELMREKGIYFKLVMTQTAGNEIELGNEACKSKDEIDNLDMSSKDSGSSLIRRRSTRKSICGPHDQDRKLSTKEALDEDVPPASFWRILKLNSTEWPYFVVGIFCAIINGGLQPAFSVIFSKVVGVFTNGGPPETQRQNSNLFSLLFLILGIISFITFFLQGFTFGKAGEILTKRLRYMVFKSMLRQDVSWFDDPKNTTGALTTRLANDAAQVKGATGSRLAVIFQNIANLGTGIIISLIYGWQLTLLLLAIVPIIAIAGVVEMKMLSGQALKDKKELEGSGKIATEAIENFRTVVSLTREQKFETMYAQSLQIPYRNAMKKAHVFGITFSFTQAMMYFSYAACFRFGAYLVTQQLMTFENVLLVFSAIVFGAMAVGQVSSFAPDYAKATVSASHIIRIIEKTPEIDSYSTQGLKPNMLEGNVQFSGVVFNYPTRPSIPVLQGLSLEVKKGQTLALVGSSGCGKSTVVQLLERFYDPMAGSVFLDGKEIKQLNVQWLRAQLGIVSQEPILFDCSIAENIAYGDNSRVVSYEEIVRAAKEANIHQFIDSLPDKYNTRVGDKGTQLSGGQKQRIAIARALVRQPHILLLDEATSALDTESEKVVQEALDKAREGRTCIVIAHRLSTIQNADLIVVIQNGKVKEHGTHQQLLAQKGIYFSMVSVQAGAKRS
Kind of data set: Effect of AIT-082 on efflux of 3H-quinidine (P-gp substrate) from brain after icv administration. Particulars: quinidine is a P-gp substrate. Type of data set: in vivo, mice. The procedure:
(§3) These experiments were conducted according to the method of Banks et al. (1997) with minor modifications. The skull was exposed and, with a guarded 25 g needle, a hole was made through the skull at 1 mm anterior posterior (AP) and 1 mm lateral left (LL), relative to Bregma, and 3.5 mm dorsal ventral (DV), with respect to the skull. A guarded 1 μL Hamilton syringe (25 g) was used to inject 1 μL of PBS containing ^14C-AIT-082 (˜4.5×10^4 dpm/μL), ^3H-sucrose (˜3×10^4 dpm/μL), or ^3H-quinidine (˜3×10^4 dpm/μL) icv into mice. After injection and upon withdrawing the needle, there was often back flux of fluid that was collected. At various times after injection the amount of radioactivity remaining in the brain was determined. The amount of radioactivity in the back flux and injection mixture was also determined. Radioactivity in brain was corrected for the back flux and the log of this corrected dpm was plotted against time. The t½, was the inverse of the slope of the line multiplied by 0.301 (Banks et al., 1997).
as §2

Data set [5] in a line: Intracerebroventricular (icv) efflux from brain. Type of data set: in vivo, mice. Particulars: icv administration. The procedure: as §1, §3, §2
Data set [6] has as its system MRPs. Kind of data set: Effect of MRP inhibitors on efflux of 14C-AIT-082 from brain after ipc administration. Type of data set: in vivo, mice. The settings on record: ipc co-administration with 14C-AIT-082.
Experimental: Mice were anesthetized and then immobilized in a stereotaxic apparatus with a mouse adaptor coupled to a microinjection unit (Kopf, Tujunga, Calif.). […] Back flux of injection fluid was collected and at various times after injection brains were removed. The amount of radioactivity in brain, back flux and injection mixture was measured. The amount of radioactivity in the brain was corrected for the back flux and the log of this corrected dpm was plotted against time. The t½ was calculated as described above.
As above, all experiments included a control group in which ^14C-AIT-082 was administered in PBS.
For data set [7], the system named is MRPs. The experiment in a line: Effect of MRP inhibitors on efflux of 14C-AIT-082 from brain after icv administration. The class given is in vivo, mice. The settings on record: icv co-administration with 14C-AIT-082.
Experimental: To examine the role of P-gp and MRP, various substrates/inhibitors were co-administered with ^14C-AIT-082. […] In all experiments the control group of animals was given ^14C-AIT-082 in PBS. Additionally, in experiments in which probenecid or verapamil were used, a second control group was given ^14C-AIT-082 in PBS containing 370 mM NaOH and 370 mM HCl, pH 7.4, or 14C-AIT-082 in PBS with 4.2% ethanol, pH 7.4, respectively.
All data are presented as mean ±S.E. For comparisons of means from 2 groups an unpaired Student's t-test was used. […]
Where [8] appears, read: passively transported compound, t½ significantly higher.

The structures appear in SMILES notation. Read-outs that look alike come from different tables or passages of the source.

`O=C(CCn1cnc2c(=O)[nH]cnc21)Nc1ccc(C(=O)O)cc1` [AIT-082, N-4-carboxyphenyl-3-(6-oxohydropurin-9-yl)propanamide]: in data set [1], the “effect of excess unlabeled AIT-082 on efflux of 14C-AIT-082 from brain” value is reported as “inhibited”. For the same molecule, the “t½ of transport out of brain” value in data set [1] (after intracerebroventricular administration) is “approximately 20 minutes”; in data set [3] (mice, mean ±S.E.) it was 35.0 ± 1.9 min; in data set [5] (mice, mean ±S.E.), 20 ± 1.0 min. The “mechanism of transport into brain” value in data set [2] is “non-saturable mechanism”. Further, the “amount detectable in cortical extracellular fluid” value in data set [2] (capillary depletion and microdialysis) is listed as “low micromolar quantities”. Also, the “effect of excess unlabeled AIT-082 on efflux of 14C-AIT-082 from brain (saturability)” value in data set [3] and in data set [5] was “inhibited” each time. The “effect on efflux of 3H-quinidine from brain” value in data set [4] was “inhibited”.
For the molecule `OC[C@H]1O[C@@](CO)(O[C@H]2O[C@H](CO)[C@@H](O)[C@H](O)[C@H]2O)[C@@H](O)[C@@H]1O` [^3H-sucrose, sucrose, reference compound], the “transport out of brain compared with 14C-AIT-082” value in data set [3] (setting [8]) and in data set [5] (setting [8]) was “significantly slower” throughout.
`CCCN(CCC)S(=O)(=O)c1ccc(C(=O)O)cc1` [probenecid]: the “effect on efflux of 14C-AIT-082 from brain” value in data set [6] and in data set [7] was “significantly inhibited” throughout.
